Key:
calvaria = experiment: Cytotoxicity test (MTT), calvaria; format: cell-based; details: 10^−6M, 72 hrs, in comparison with the control group
Procedure: (§1) The cytotoxic effect of the benzamidine derivative of the present invention was evaluated by carrying out the experiment described below.
(§2) The test substance was diluted in an appropriate solvent at a 10^−2 M concentration. This substance was diluted in an appropriate culture medium for the cells used in the cytotoxicity test to a concentration of […], and loaded into a 96-well plate in 100 μl per well. The cell lines to be used in the cytotoxicity test were plated on a 96-well plate in a dose of 1.0×10^4 cells/1OO μl per well and cultured for 72 hrs. 25 μl of MTT [3-(4,5-dimethyl-2-thiazolyl)-2,5-diphenyl-2H-tetrazolium bromide] dissolved in PBS (2 mg/mL) were added before 4 hrs of the end of culture. After completion of the reaction, the plates were centrifuged, the medium was discarded and 100 μl of DMSO was added to dissolve formazan. Finally, the absorbance of the developed plates was measured at 540 nm. The survival rates of the cells were expressed as % concentration values in comparison with the control group.

[1] = tested on: osteoclast differentiation; experiment: Inhibitory effect on osteoclast differentiation, co-culture of bone marrow cells and osteoblast, TRAP staining; format: cell-based, mouse; details: 1 μm, 7 days co-culture, TRAP-positive osteoclasts with 3 or more nuclei, relative to negative controls; for inhibition at 1 µM: Mus musculus, Osteoclast, 168 h, read-out: inhibitory effect on osteoclast differentiation(%)
Procedure: The effect of the benzamidine derivative of the present invention on osteoclast formation and differentiation process was evaluated via co-culture with an osteoblast.
Tibia was aseptically ectomized from male 6 to 8-week-old ddY mice to harvest bone marrow cells by using a syringe (21G, Korea Green Cross). The bone marrow cells were suspended in 5 mL of an α-MEM medium (Gibco BRL Co., added with sodium bicarbonate (2.0 g/L), streptomycin (100 mg/L) and penicillin ([…]), filtered and then sterilized). The harvested cells were centrifuged at 600×g for 5 mins to collect the whole quantity. To remove the red blood cells in the bone marrow cells, 3 mL of Tris HCl (0.83% NH4Cl, pH 7.5) was added and well mixed. After centrifuging above cells, the numbers of the eukaryotic cells in the harvested bone marrow cells were counted and then immediately used for a co-culture system.
The progenitor bone and the parietal bone were aseptically ectomized from 1 to 2-day-old neonate ICR mice, washed with a phosphate butter solution (PBS) and treated with a mixed enzyme solution (of 0.2% collagenase and 0.1% dispase) sequentially (10, 10, 10, 20, 20 and 20 min), and then 3 to 6 groups of the cells which comprise lot of cells having the characteristics of the osteoblast were intensively collected and washed with a medium (a serum-free α-MEM). The washed cells were cultured in the α-MEM medium containing 10% FBS for 2 to 3 days. After subculturing, the collected cells were used for this experiment, and diluted to a concentration of 1×10^6 cells/mL for storage at −70[…].
The benzamidine derivative of the present invention was dissolved in a sterile distilled water or ethanol to dilute to a desired concentration. The final volume of the sample added to the cell culture medium was set at a ratio of 1:1000.
The bone marrow cells prepared in the above 1-1 and the osteoblast were co-cultured for osteoclast differentiation. Both the bone marrow cells (25,000 cells/cm^2) and the osteoblast (10,000 cells/cm^2) were plated in a 96-well plate using α-MEM medium containing FBS, and then cultured with the samples to be tested for 7 days. Differentiation factors, such as dexamethasone (10^−7 M) and vitamin D3 (10^−8 M), were also co-added to the medium from the first day of cultivation. The medium was changed with a fresh media containing a mixture of the samples and the differentiation factors every 2 to 3 days.
TRAP was used as a marker to measure the matured osteoclast in consideration of its characteristics showing a positive reaction to a TRAP staining solution. The TRAP staining solution was prepared in such the manner that 5 mg of naphtol AS-MS phosphate (sigma N-4875) as a substrate, and 25 mg of a coloring agent (Fast Red Violet LB salt) were dissolved in N,N-dimethylformamide (about 0.5 mL). 50 ml of a 0.1 N NaHCO3 buffer solution containing 50 mM tartaric acid (pH 5.0) was added thereto, and the mixture was stored at a refrigerator prior to use as a staining solution.
After culturing the cells for 7 days, the medium was removed from the wells, the cells were once washed with PBS, and then fixed with PBS containing 10% formalin for 2 to 5 min. The cells were fixed again in a mixed solution of ethanol and acetone (1/1) for about 1 min, and dried off. The cells were further treated by the TRAP staining solution for 15 mins and washed with water and dried off. The osteoclasts with 3 or more nuclei showing a TRAP-positive reaction were counted under a microscopic examination. Each of tests was confirmed over at least three times. The inhibitory effect on osteoclast differentiation of each experimental group, relative to negative controls, was expressed as a percentage (%).

HOS = experiment: Cytotoxicity test (MTT), HOS; format: cell-based; details: 10^−6M, 72 hrs, in comparison with the control group
Procedure: as §1, §2

MC3T3 = experiment: Cytotoxicity test (MTT), MC3T3; format: cell-based; details: 10^−6M, 72 hrs, in comparison with the control group
Procedure: as §1, §2

Structure (SMILES)	survival rates of the cells (calvaria) [%]	inhibition at 1 µM [1] [%]	survival rates of the cells (HOS) [%]	survival rates of the cells (MC3T3) [%]	inhibitory effect on osteoclast differentiation(%) [1] [%]
CCc1nc(-c2ccc(OCCCCCOc3ccc(C(=N)NO)cc3)cc2)c(CCN2CCSCC2)s1 [Example 43, N-hydroxy-4-(5-{4-[2-ethyl-5-(2-thiomorpholin-4-yl-ethyl)-thiazol-4-yl]-phenoxy}-pentyloxy)-benzamidine]	91.9	97.7	80.4	86.5	–
N=C(N)c1ccc(OCCCCCOc2ccc(-c3nc(N4CCOCC4)sc3CCN3CCOCC3)cc2)cc1 [Example 64, 4-(5-{4-[2-morpholin-4-yl-5-(2-morpholin-4-yl-ethyl)-thiazol-4-yl]-phenoxy}-pentyloxy)-benzamidine]	99.4	–	107.8	119.8	–
N=C(NO)c1ccc(OCCCCCOc2ccc(-c3nc(C4CCCCC4)sc3CCN(C(=O)c3cccnc3)C3CC3)cc2)cc1 [Example 68, N-hydroxy-4-{5-[4-(2-cyclohexyl-5-{2-[cyclopropyl-(pyridine-3-carbonyl)-amino]ethyl}-thiazol-4-yl)-phenoxy]-pentyloxy}-benzamidine]	91.4	–	82.9	90.3	–
CC(C)c1nc(-c2ccc(OCCCCCOc3ccc(C(=N)NO)cc3)cc2)c(CCN(C(=O)c2ccncc2)C2CC2)s1 [Example 67, N-hydroxy-4-{5-[4-(5-{2-[cyclopropyl-(pyridine-4-carbonyl)-amino]-ethyl}-2-isopropyl-thiazol-4-yl)-phenoxy]-pentyloxy}-benzamidine]	95.3	–	97.5	80.7	–
COCCN(CCOC)c1nc(-c2ccc(OCCCCCOc3ccc(C(=N)NO)cc3)cc2)c(CCN2CCOCC2)s1 [Example 58, N-hydroxy-4-(5-{4-[2-[bis-(2-methoxy-ethyl)-amino]-5-(2-morpholin-4-yl-ethyl)-thiazol-4-yl]-phenoxy}-pentyloxy)-benzamidine]	76.8	100	85.4	79.2	–
CNc1nc(-c2ccc(OCCCCCOc3ccc(C(=N)NO)cc3)cc2)c(CCNCCCn2ccnc2)s1 [Example 51, N-hydroxy-4-[5-(4-{5-[2-(3-imidazol-1-yl-propylamino)-ethyl]-2-methylamino-thiazol-4-yl}-phenoxy)-pentyloxy]-benzamidine]	91.7	32	99.6	93.8	–
CNc1nc(-c2ccc(OCCCCCOc3ccc(C(=N)N)cc3)cc2)c(CCN2CCOCC2)s1 [Example 52, 4-(5-{4-[2-methylamino-5-(2-morpholin-4-yl-ethyl)-thiazol-4-yl]-phenoxy}-pentyloxy)-benzamidine]	100.1	–	98.8	115.6	–
N=C(NO)c1ccc(OCCCCCOc2ccc(-c3nc(CN4CCCCC4)sc3CCN3CCOCC3)cc2)cc1 [Example 63, N-hydroxy-4-(5-{4-[5-(2-morpholin-4-yl-ethyl)-2-piperidin-1-yl-methyl-thiazol-4-yl]-phenoxy}-pentyloxy)-benzamidine]	86.9	99.2	86.5	89.4	–
CCN(CC)c1nc(-c2ccc(OCCCCCOc3ccc(C(=N)NO)cc3)cc2)c(CCN2CCOCC2)s1 [Example 57, N-hydroxy-4-(5-{4-[2-diethylamino-5-(2-morpholin-4-yl-ethyl)-thiazol-4-yl]-phenoxy}-pentyloxy)-benzamidine]	87.0	100	90.7	86.8	–
Cc1nc(-c2ccc(OCCCCCOc3ccc(C(=N)NO)cc3)cc2)c(CCN(CC(C)C)C(=O)c2cccnc2)s1 [Example 66, N-hydroxy-4-{5-[4-(5-{2-[isobutyl-(pyridine-3-carbonyl)-amino]-ethyl}-2-methyl-thiazol-4-yl)-phenoxy]-pentyloxy}-benzamidine]	99.0	–	105.9	111.1	–
CCc1nc(-c2ccc(OCCCCCOc3ccc(C(=N)NO)cc3)cc2)c(CCN2CCOCC2)s1 [Example 42, N-hydroxy-4-(5-{4-[2-ethyl-5-(2-morpholin-4-yl-ethyl)-thiazol-4-yl]-phenoxy}-pentyloxy)-benzamidine]	73.8	100	98.9	81.5	–
Cc1nc(-c2ccc(OCCCCCOc3ccc(C(=N)N)cc3)cc2)c(CCN2CCOCC2)s1 [Example 46, 4-(5-{4-[2-methyl-5-(2-morpholin-4-yl-ethyl)-thiazol-4-yl]-phenoxy}-pentyloxy)-benzamidine]	99.9	63.4	94.1	95.3	–
CN(C)CCc1sc(C2CCCCC2)nc1-c1ccc(OCCCCCOc2ccc(C(=N)NO)cc2)cc1 [Example 37, N-hydroxy-4-(5-{4-[2-cyclohexyl-5-(2-dimethylamino-ethyl)-thiazol-4-yl]-phenoxy}-pentyloxy)-benzamidine]	84.7	100	116.7	94.9	–
N=C(NO)c1ccc(OCCCCCOc2ccc(-c3nc(-c4ccccc4)sc3CCN3CCOCC3)cc2)cc1 [Example 41, N-hydroxy-4-(5-{4-[5-(2-morpholin-4-yl-ethyl)-2-phenyl-thiazol-4-yl]-phenoxy}-pentloxy)-benzamidine]	78.6	–	78.8	85.9	100
N=C(N)c1ccc(OCCCCCOc2ccc(-c3nc(C4CCCCC4)sc3CCN3CCOCC3)cc2)cc1 [Example 45, 4-(5-{4-[2-cyclohexyl-5-(2-morpholin-4-yl-ethyl)-thiazol-4-yl]-phenoxy}-pentyloxy)-benzamidine]	90.5	–	106.9	108.2	–
Cc1nc(-c2ccc(OCCCCOc3ccc(C(=N)NO)cc3)cc2)c(CCN2CCOCC2)s1 [Example 44, N-hydroxy-4-(4-{4-[2-methyl-5-(2-morpholin-4-yl-ethyl)-thiazol-4-yl]-phenoxy}-butoxy)-benzamidine]	90.6	–	105.6	101.3	–
